Laboratory results from patent US20160207893A1, “NOVEL CALCIUM MODULATORS” (Myotherix, Inc., priority 2014, published 2016).

How the values were obtained:
[1] = test system: iCell Cardiomyocytes (hIPS cardiomyocytes); assay: Calcium transient dynamics in cardiomyocytes derived from human stem cells by Kinetic Image Cytometry; format: cell-based
Description: CTD25: Approximates the time elapsed during the first 25% of the transient duration. The measurement assesses the time elapsed from the 75% point of upstroke to the 75% point on the downstroke relative to the peak. Full Width Half Maximum (FWHM): The time elapsed from the 50% point of the upstroke to the 50% point of the down stroke. CTD75: Approximates the time elapsed for 75% of the transient duration. The measurement assesses the time elapsed from the 25% point of upstroke to the 25% point on the down stroke relative to the peak. CTD90: Approximates the time elapsed for 90% of the transient duration. The measurement assesses the time elapsed from the 10% point of upstroke to the 10% point on the down stroke relative to the peak. Decay Time: The time elapsed from the peak to the 50% point of the down stroke T75-25: The time elapsed from the 75% point of the transient maximum to the 25% point of the transient maximum on the down stroke. Beat Rate is assessed by measuring the number of transients observed during the recording period and extrapolating out to the number of expected beats per minute.
Analysis of Test Compounds on Calcium Transient Dynamics in Cardiomyocytes Derived from Human Stem Cells by Kinetic Image Cytometry
Cryopreserved cells (Cellular Dynamics International) were plated onto 96 well tissue culture plates previously coated with Matrigel (250 μg/ml) at a density of 25,000 cells per well, and maintained for two days in plating medium at 37° C. and 7% CO2. After two days in culture, the plating media was replaced with maintenance media and the cells were kept at 37° C. and 7% CO2 with the maintenance media replaced every other day. The cardiomyocytes were maintained in culture for 10 days prior to their use in the assay.
Prior to treatment with the test compounds, the cardiomyocytes were loaded using Fluo-4NW, Hoechst 33342 (200 ng/ml), and 2.5 mM probenecid in the supplied Fluo-4NW assay buffer. Cells were loaded for 1 hour at 37° C.
Test compounds were diluted to their final concentration in Tyrode's solution and brought to 37° C. In addition to standard 2 mM CaCl2 Tyrode's solution, elevated calcium variations using 4 mM and 6 mM CaCl2 were examined in separate test sets.
The hIPS Cardiomyocytes were also prepared for testing with 1 Hz electrical stimulation in standard 2 mM CaCl2 Tyrodes, and test compounds were prepared as described above. […]
Vala Sciences' Kinetic Image Cytometer (KIC™) was used to capture movies of the intracellular calcium transients. The environmental control chamber of the KIC was set to 37° C. and the KIC was fitted with a 20× objective and captured one image of the nuclei (Hoechst), then recorded 10 seconds of spontaneous activity (Fluo-4NW) at 30 fps from each well.

[2] = Plasma stability (incubation in mouse plasma, LC/MS/MS); format: in vitro ADME; conditions: for Plasma Stability, Time 0 min / Plasma Stability, Time 30 min / Plasma Stability, Time 60 min / Plasma Stability, Time 240 min: 37° C., 20 μM, parent remaining vs 0-min control
Description: The assay was carried out in 96-well microtiter plates. Compounds were incubated at 37° C. in the presence of the plasma. Reaction mixtures (50 μL) contained a final concentration of 20 μM test compound. The extent of metabolism was calculated as the disappearance of the test compound, compared to the 0-min control reaction incubations. Eucatropine was included as a positive control to verify assay performance.
At each of the time points, 500 μL of quench solution (100% acetonitrile with 0.1% formic acid) with internal standard was transferred to each well. Plates were sealed, vortexed, and centrifuged at 4° C. for 15 minutes at 4000 rpm. The supernatant was transferred to fresh plates for LC/MS/MS analysis.
All samples were analyzed on LC/MS/MS using an AB Sciex API 4000 instrument, coupled to a Shimadzu LC-20AD LC Pump system. Analytical samples were separated using a Waters Atlantis T3 dC18 reverse phase HPLC column (10 mm×2.1 mm) at a flow rate of 0.5 mL/min. The mobile phase consisted of 0.1% formic acid in water (solvent A) and 0.1% formic acid in 100% acetonitrile (solvent B). Elution conditions are detailed in the table below.

[3] = test system: human Duchenne muscular dystrophy (hDMD) myoblast cells; assay: Calcium release, SR calcium leak and SOCE in Fluo-4/AM-loaded hDMD myoblasts (CPA protocol); format: cell-based; conditions: 30 uM; for Integrated CPA-Induced CaT (area under the curve) (% Reduction in Peak A): CPA in Ca2+-free solution; for % Reduction in Peak CaT after return to 2 mM Ca^2+ (% Reduction in Peak E): SOCE-induced calcium transit
Description: Parameters measured are A, the peak CPA-induced calcium transit (F/F0); B, the maximum rate of rise of CPA-induced calcium transit (+ΔF/s); C, the maximum rate of decline of CPA-induced calcium transit (−ΔF/s); D, the integrated CPA-induced calcium transit (F.s); and E, the SOCE-induced calcium transit (F/F0).
Cell Preparation: De-identified telomerized human Duchenne muscular dystrophy (hDMD) myoblast cells were grown under standard cell culture conditions in 35 mm glass bottom petri dishes (MatTek, Ashland, Mass.) specially designed for perfusion and imaging.
Uncoated coverslips were coated with gelatin and hDMD cells seeded at ˜40-60% confluency 24 hours prior to fluorescence experiments.
Step 1. Cell Loading with the Fluorescent Ca^2+ Indicator Fluo-4/AM (Cell Permeant Form): hDMD cells were loaded with 5 μM Fluo-4/AM (Thermo Fisher Scientific) for 45 min at room temperature in the same buffer used for experiments of which composition is described below. After the incubation, the cells are washed twice with the same buffer without the indicator. Fluorescence experiments were initiated after a 30 min incubation in indicator-free buffer to allow for de-esterification of the dye and conversion to its acid active form by endogenous esterases.
Step 2. Fluo-4 Fluorescence Detection: A 35 mm petri dish containing Fluo-4-loaded myoblasts was set on the stage of an inverted Nikon Diaphot 300 epifluorescence microscope equipped with a dual PMT ratiometric fluorimeter system (Model SFX-2, Solamere Technology Group, Salt Lake City, Utah) and optical switch (Model DX-1000, Salt Lake City, Utah), a B/W camera and monitor, a PC computer running on Windows 7 Pro operating system and A/D-D/A data acquisition hardware (Axon Instruments Inc., Digidata 1440 interface) and software (Axon Instruments Inc., Axoscope v. 9.2). During a typical experiment, ca. one third to one half of a cell (field of view narrowed by a manually-controlled diaphragm) is visualized on the B/W TV monitor with an oil immersion 40× Fluor objective (NA=1.3) and defines the area from which epifluorescence intensity will be measured by one of the two PMTs (non-ratiometric measurements). For all experiments, the cells are excited by visible light produced by a 100 W mercury arc lamp centered at 488 nm. Emitted fluorescence at 520 nm is transmitted to the lateral port of the microscope by means of dichroic mirrors and a specific barrier filter located in one of three microscope filter cubes. Before each day of experiments, background fluorescence is cancelled by measuring emitted fluorescence in an unloaded cell. For all cells loaded with Fluo-4/AM, relative fluorescence intensity at 520 nm (filtered at 5 Hz) is normalized to Fluo-4 fluorescence intensity measured in Ca^2+-free medium (F/F0) prior to the addition of 10 μM cyclopiazonic acid (CPA; see protocol description below) to monitor Ca^2+ leakage from the sarcoplasmic reticulum (SR). Free intracellular Ca^2+ concentration is continuously monitored (>20 min; acquisition rate=200 Hz) with no evidence of photobleaching due to low level of excitation light intensity used and sensitivity of the Hamamatsu PMT set to high power.
After mounting the petri dish containing Fluo-4-loaded cells on the microscope stage, cell perfusion with normal physiological salt solutions (PSS) containing 2 mM Ca^2+ was initiated. A myoblast cell was then chosen under normal illumination. Fluo-4 fluorescence intensity recording was then initiated for 2 to 3 minutes to assess the level of loading and stability of the measurement. Once these conditions were met, the solution was switched to Ca^2+-free PSS for 5 min, and then switched for another 5 min to Ca^2+-free PSS containing only vehicle (Control; maximal concentration of 0.1% dimethyl sulfoxide) or vehicle plus drug to be tested (Test). […]

[4] = test system: mdx mice; assay: In vitro force measurement of diaphragm muscle of treated mdx mice; format: in vivo, mouse; conditions: ca. 60 mg/kg in diet, four weeks of daily treatment (FIG. 8)
Description: (§1) mdx C57BL/10 mice (15 mice per group) (Jackson Laboratory; mdx mice stock number 001801; C57BL/10 stock number 000476) were treated with Example 20 formulated in food (347 mg of Example 20 blended into 1 kg of Purina LabDiet Rodent 5001). Based on calculated food consumption, the dose of Example 20 was estimated to be 60 mg/Kg, administered daily in diet for 4 weeks.
Mice were delivered at 4 weeks of age, and acclimatized for an additional seven days prior to initiation of the study. All animals were weighed, and grouped into different treatment groups based on body weight. Each group received an appropriate daily dosage of Example 20 or vehicle. Age and sex-matched C57BL/10 (vehicle) were used as controls. Exposure levels of Example 1 (the metabolism product of Example 20) in mouse plasma was measured in a separate 5-day pharmacokinetic study in mdx mice prior to the initiation of the 4-week study. Plasma samples were also taken at the termination of the 4-week study for pharmacokinetic assessment in which exposure leves of Example 1 were again measured (the results are set out below). The functional measurements (grip strength measurement and exhaustion assay) were performed after treatment. At the end of the trial, the extensor digitorum longus muscle (EDL) and diaphragm in vitro force measurements were taken, and dissection of the mice was performed to collect tissues. […]

[5] = test system: mdx mice; assay: Histology (H&E): muscle regeneration and markers of inflammation in treated mdx mice; format: in vivo, mouse; conditions: 4-weeks treatment
Description: as §1
Mice were delivered at 4 weeks of age, and acclimatized for an additional seven days prior to initiation of the study. All animals were weighed, and grouped into different treatment groups based on body weight. Each group received an appropriate daily dosage of Example 20 or vehicle. Age and sex-matched C57BL/10 (vehicle) were used as controls. Exposure levels of Example 1 (the metabolism product of Example 20) in mouse plasma was measured in a separate 5-day pharmacokinetic study in mdx mice prior to the initiation of the 4-week study. Plasma samples were also taken at the termination of the 4-week study for pharmacokinetic assessment in which exposure leves of Example 1 were again measured (the results are set out below). The functional measurements (grip strength measurement and exhaustion assay) were performed after treatment. At the end of the trial, the extensor digitorum longus muscle (EDL) and diaphragm in vitro force measurements were taken, and dissection of the mice was performed to collect tissues. Histology evaluation (H&E) was performed on the frozen sections of the diaphragm and gastrocnemius muscles for each group.
Diaphragm and gastrocnemius muscles of untreated and drug-treated mice were isolated and included in Killik frozen section medium, frozen and cut into 8-μm thick sections with the muscle fibers oriented transversely using a cryostat. Sections were stained with Hematoxylin & Eosin to evaluate markers of inflammation, muscle degeneration and regeneration and percentage central nuclei according to Grounds (TREAT NMD SOP protocol DMD_M.1.2.007, Quantification of histopathology in Haemotoxylin and Eosin stained muscle sections).

Row | Plasma Stability, Time 0 min [2] [%] | Plasma Stability, Time 60 min [2] [%] | Plasma Stability, Time 240 min [2] [%] | Structure (SMILES) | Integrated CPA-Induced CaT (area under the curve) (% Reduction in Peak A) [3] [%] | % Reduction in Peak CaT after return to 2 mM Ca^2+ (% Reduction in Peak E) [3] [%] | other results
1 | – | – | – | COC(=O)C1=C(C)NC(C)=C([N+](=O)[O-])C1c1ccccc1C(F)(F)F (stereo not shown) [Bay K8644, reference compound] | – | – | CTD75 relative to vehicle control ([1]; reference compounds at 1 uM, under each experimental condition, 0.1% DMSO vehicle): ≥ 125 % of vehicle control
2 | 100.0 | 67.4 | 41.0 | CC1CC(OC(=O)C(O)c2ccccc2)CC(C)(C)N1C (stereo not shown) [Eucatropine, reference compound] | – | – | Plasma Stability, Time 30 min [2]: 90.0%
3 | 100.0 | 99.8 | 102.1 | [2H]C(c1ccc(C(=O)O)cc1)N1CCSc2ccc(OC)cc2C1([2H])[2H] (stereo not shown) [Example 1, 4-((5,5-Dideutero-7-methoxy-2,3-dihydrobenzo[f][1,4]thiazepin-4(5H)-yl)deuteromethyl)benzoic acid] | – | – | plasma stability after 2-hours of incubation in plasma ([2]; 2-hours of incubation): unchanged; Plasma Stability, Time 30 min [2]: 111.2%
4 | – | – | – | COc1cc2c(cn1)SCCN(Cc1ccc(C(=O)O)cc1)C2 [Example 2, 4-((7-Methoxy-2,3-dihydropyrido[4,3-f][1,4]thiazepin-4(5H)-yl)methyl)benzoic acid] | 43.3 | 41.4 | CTD75 shortened to % of control ([1]; 10 uM, 30 uM (FIG. 5)): 79 % of control; triangulation T75-25 reduced to % of control ([1]; 10 uM, 30 uM (FIG. 5)): 71 % of control; effect on proarrhythmia and calcium transient ([1]; 10 uM, 30 uM, spontaneously beating cells in 4 mM calcium Tyrode's solution (FIG. 4)): dose-related reduction of proarrhythmia and calcium transient shortening
5 | – | – | – | COc1ccc2c(n1)CN(Cc1ccc(C(=O)O)cc1)CCS2 [Example 9, 4-((7-Methoxy-2,3-dihydropyrido[2,3-f][1,4]thiazepin-4(5H)-yl)methyl)benzoic acid] | 19.4 | 40.7 | –
6 | – | – | – | COc1cnc2c(c1)CN(Cc1ccc(C(=O)O)cc1)CCS2 [Example 13, 4-((7-Methoxy-2,3-dihydropyrido[3,2-f][1,4]thiazepin-4(5H)-yl)methyl)benzoic acid] | 25.9 | 80.8 | –
7 | – | – | – | COc1ncc2c(n1)CN(Cc1ccc(C(=O)O)cc1)CCS2 [Example 17, 4-((2-Methoxy-6,7-dihydropyrimido[4,5-f][1,4]thiazepin-8(9H)-yl)methyl)benzoic acid] | 23.0 | 21 | –
8 | 100.0 | 0.6 | 0.3 | [2H]C(c1ccc(C(=O)OCCCCO[N+](=O)[O-])cc1)N1CCSc2ccc(OC)cc2C1([2H])[2H] (stereo not shown) [Example 20] | – | – | maximal force in the diaphragm [4]: significant improvement; specific force in the diaphragm [4]: significant improvement; increase in regenerating fibers/mm^2 in the diaphragm [5]: > 25%; increase in regenerating fibers/mm^2 in the gastrocnemius muscle [5]: > 50%; reduction in inflammatory foci/mm^2 in the gastrocnemius muscle [5]: > 30%
9 | – | – | – | COc1ccc2c(c1)CN(C)CCS2 [Example S107, reference compound] | 74.1 | 52.8 | –
